Experimental data as given in patent US20100022457A1 (Bristol-Myers Squibb Company, priority 2006, published 2010).
Where two headings read alike, the source gives them in different places. Where a SMILES comes first, the peptide text is derived from it. [ ]: non-standard residue; d: D form. The star is where a group is joined. ξ: configuration not given here. Ala(6-(2-MePh)pyridin-3-yl) = Cc1ccccc1-c1ccc(C[C@H](N)C(=O)O)cn1; Phe(4-(2-Et-4-HO-Ph)) = CCc1cc(O)ccc1-c1ccc(C[C@H](N)C(=O)O)cc1; Bip(2'-Et-4'-OMe) = CCc1cc(OC)ccc1-c1ccc(C[C@H](N)C(=O)O)cc1; Lactoyl(3-(imidazol-4-yl)) = O=C([C@@H](O)Cc1c[nH]cn1)*; Bip(2'-Me) = Cc1ccccc1-c1ccc(C[C@H](N)C(=O)O)cc1; d(αMePhe(2-F)) = C[C@@](N)(Cc1ccccc1F)C(=O)O; αMePhe(2-F) = C[C@](N)(Cc1ccccc1F)C(=O)O; ξαMePhe(2-F) = CC(N)(Cc1ccccc1F)C(=O)O; Thr(3ξ) = CC(O)[C@H](N)C(=O)O; ξαMeP = CC1(C(=O)O)CCCN1; Aib = CC(C)(N)C(=O)O; Moc = COC(=O)*

What was measured:
[1] = Exposure during ipGTT in ob/ob mice; type: in vivo, mouse; conditions: sc
C57BL/6J-ob/ob mice = experiment: Intraperitoneal glucose tolerance test (ipGTT) in ob/ob mice after subcutaneous injection; type: in vivo, mouse; conditions: for Potency in ob/ob mice ED50: sc injection, plasma glucose AUC in ipGTT; for effect on postprandial plasma glucose: sc in ob/ob mice, between 0 and 180 or 210 minutes
Experimental: Peptides were dissolved in an appropriate vehicle at a concentration in nmol/ml equivalent to the dose that was to be administered in nmol/kg so that each mouse would receive the same volume/weight of dosing solution. Male C57BL/6J-ob/ob mice (10 weeks old) were randomized into groups of 6 mice per group based on fed plasma glucose and body weight. After an overnight fast, mice were weighed and placed in the experimental lab. After 30 min in the environment, the mice were bled via tail tip at −30 min and immediately injected subcutaneously (sc) with vehicle or the peptide dissolved in vehicle (0.1 ml solution/100 g body weight). At time 0 the mice were bled and then injected intraperitoneally with 50% glucose (2 g/kg) to initiate the intraperitoneal glucose tolerance test (ipGTT). The mice were bled 30, 60, 120 and 180 min after the glucose injection. Blood samples were drawn into potassium EDTA, placed on ice during the study and subsequently centrifuged for 10 min at 3000 rpm at 4° C. Plasma samples were diluted 1-fold for glucose analysis in the Cobas System. Another 5 μl plasma sample was diluted 5-fold with 20 μl of Sample Diluent (Insulin ELISA assay kit, Crystal Chem Inc.) and stored at −20° C. for subsequent analysis using the Ultra Sensitive Mouse Insulin ELISA kit (Crystal Chem Inc.).

[2] = Dog pharmacokinetic study (intravenous and subcutaneous, 67 μg/kg); type: in vivo; conditions: for half-life: read-out: t½ (converted)
Experimental: The pharmacokinetic parameters of the compound of SEQ ID NO:9 were determined in male beagle dogs (n=4, 14±1 kg). Following an overnight fast, each animal received the compound of SEQ ID NO:9 either as an intravenous bolus via femoral vein (67 μg/kg) or by subcutaneous injection given at near the shoulder blades (67 μg/kg). Each animal received both intravenous and subcutaneous doses with a one-week washout between doses following a crossover design. […] Serial blood samples were collected in EDTA-containing microcentrifuge tubes at predose, 0.083, 0.25, 0.5, 0.75, 1, 2, 4, 6, 8, 24, and 30 hours post-dose after intravenous administration; at predose, 0.25, 0.5, 0.75, 1, 2, 4, 6, 8, 24, and 30 hours post-dose after subcutaneous administration. Approximately 0.3 mL of blood was collected at each time point. Blood samples were immediately centrifuged at 4° C. The obtained plasma was frozen with dry ice and stored at −20° C. Plasma drug levels were determined using the LC-MS/MS assay described above.
Plasma samples from in vivo dog study were prepared for analysis by precipitating plasma proteins with two volumes of acetonitrile containing an internal standard. The samples were vortex mixed and removed the precipitated proteins by centrifugation. The resulting supernatants were transferred to a 96-well plate and 10 μL were injected for analysis. Samples were prepared with the Packard Multiprobe II and Quadra 96 Liquid Handling System.
The HPLC system consisted of two Shimadzu LC10AD pumps (Columbia, Md.), a CTC PAL autosampler (Leap Technologies, Switzerland). The column used was a YMC Hydrosphere C18 (2.0×50 mm, 3 μm) (YMC, Inc., Milford, Mass.). The column temperature was maintained at 50° C. and the flow rate was 0.3 mL/minute. The mobile phase A consisted of 10 mM ammonium formate and 0.1% formic acid in water and mobile phase B consisted of 0.1% formic acid in acetonitrile. The initial mobile phase composition was 5% B, and remained at 5% B for one minute to equilibrate the column. The composition was ramped to 95% B over two minutes and held there for one additional minute. The mobile phase was then returned to initial conditions in one minute. Total analysis time was five minutes. A switching valve was used. The eluents between 0-1 minute were diverted to the waste.
The HPLC was interfaced to a Sciex API 4000 mass spectrometer, (Applied Biosystems, Foster City, Calif.) and was equipped with a TurboIonspray ionization source. Ultra high purity nitrogen was used as the nebulizing and turbo gas. The temperature of turbo gas was set at 300° C. and the interface heater was set at 60° C. Data acquisition utilized selected reaction monitoring (SRM). Ions representing the (M+2H)^2+ species for the compound of SEQ ID NO:9, and (M+2H)^2+ for BMS-501143 (IS) were selected in Q1 and were collisionally dissociated with high purity nitrogen at a pressure of 3.5×10^−3 torr to form specific product ions which were subsequently monitored by Q3.
The standard curve concentrations, ranging from 1 to 1000 nM and from 4 to 5000 nM, were used for the in vivo samples obtained from low and high doses, respectively. The curves were fitted with a quadratic regression weighted by reciprocal […]. Standards were analyzed in duplicate. Quality control (QC) samples, prepared in blank matrix at the same concentrations as the standard were also analyzed in each analytical set. For the compound of SEQ ID NO:9, the calculated concentrations of more than 80% of the QCs were within 20% of nominal concentration, indicating acceptable assay performance.
The compound of SEQ ID NO:9 plasma concentration vs. time data were analyzed by noncompartmental methods using the […]™ software program. The Cmax and Tmax values were recorded directly from experimental observations. The AUC0-n and AUCtot values were calculated using a combination of linear and log trapezoidal summations. […]

[3] = Table I, vehicle propylene glycol/pH 7.4 phosphate buffer (1:1)
[4] = Table II, vehicle propylene glycol/pH 7.4 phosphate buffer (1:1)
[5] = Table I, vehicle 0.2 M Tris buffer (pH 8.0)
[6] = male, beagle, plasma, 67 ug/kg, dog, intravenous 67 μg/kg, Tables 6B/6C, vehicle not given
[7] = male, beagle, plasma, sc, 67 ug/kg, dog, subcutaneous 67 μg/kg, Tables 6B/6C (Table I footnote: 0.2 M Tris buffer pH 8.0)

CCc1cc(OC)ccc1-c1ccc(C[C@H](NC(=O)[C@H](CC(=O)O)NC(=O)[C@H](CO)NC(=O)[C@@H](NC(=O)[C@@](C)(Cc2ccccc2F)NC(=O)[C@@H](NC(=O)CNC(=O)[C@H](CCC(=O)O)NC(=O)C(C)(C)NC(=O)[C@@H](N)Cc2c[nH]cn2)C(C)O)C(C)O)C(=O)N[C@@H](Cc2ccc(-c3ccccc3C)cc2)C(N)=O)cc1 (stereo partly shown) [Compound I, reference compound] (H-H[Aib]EG[Thr(3ξ)][d(αMePhe(2-F))][Thr(3ξ)]SD[Bip(2'-Et-4'-OMe)][Bip(2'-Me)]-NH2)
Exposure/dose during ipGTT in ob/ob mice [1]: 22 nM*h/nmol/kg | Potency in ob/ob mice: % AUC Reduction in Plasma Glucose in an IP Glucose Tolerance Test after SC Injection of Compound (C57BL/6J-ob/ob mice; 10 nmol/kg sc, relative to vehicle-treated group): −15% (p = 0.247, NS) | Potency in ob/ob mice ED50 (C57BL/6J-ob/ob mice): 50 nmol/kg | Exposure in dogs (sc@67 μg/kg) [2, 3]: 0.089 µM·h | Exposure in dogs (sc@67 μg/kg) [2, 4]: 0.089 µM·h

CCc1cc(OC)ccc1-c1ccc(C[C@H](NC(=O)[C@H](CC(=O)O)NC(=O)[C@H](CO)NC(=O)[C@@H](NC(=O)C(C)(Cc2ccccc2F)NC(=O)[C@@H](NC(=O)CNC(=O)[C@H](CCC(=O)O)NC(=O)C2(C)CCCN2C(=O)[C@@H](N)Cc2c[nH]cn2)[C@@H](C)O)[C@@H](C)O)C(=O)N[C@@H](Cc2ccc(-c3ccccc3C)nc2)C(N)=O)cc1 (stereo partly shown) [SEQ ID NO: 118] (H-H[ξαMeP]EGT[ξαMePhe(2-F)]TSD[Bip(2'-Et-4'-OMe)][Ala(6-(2-MePh)pyridin-3-yl)]-NH2)
Exposure/dose during ipGTT in ob/ob mice [1]: 4.4 nM*h/nmol/kg | plasma glucose AUC decrease (C57BL/6J-ob/ob mice; 30 nmol/kg sc, ipGTT ob/ob mice): 81% | effect on postprandial plasma glucose (C57BL/6J-ob/ob mice): statistically significant decrease | Potency in ob/ob mice ED50 (C57BL/6J-ob/ob mice): 2.5 nmol/kg | Exposure in dogs (sc@67 μg/kg) [2, 3]: 4.02 µM·h

CCc1cc(OC)ccc1-c1ccc(C[C@H](NC(=O)[C@H](CC(=O)O)NC(=O)[C@H](CO)NC(=O)[C@@H](NC(=O)[C@](C)(Cc2ccccc2F)NC(=O)[C@@H](NC(=O)CNC(=O)[C@H](CCC(=O)O)NC(=O)[C@@H](C)NC(=O)[C@@H](N)Cc2c[nH]cn2)[C@@H](C)O)[C@@H](C)O)C(=O)N[C@@H](Cc2ccc(-c3ccccc3C)nc2)C(N)=O)cc1 [SEQ ID NO: 149] (H-H[dA]EGT[αMePhe(2-F)]TSD[Bip(2'-Et-4'-OMe)][Ala(6-(2-MePh)pyridin-3-yl)]-NH2)
Exposure in dogs (sc@67 μg/kg) [2, 4]: 0.94 µM·h

CCc1cc(OC)ccc1-c1ccc(C[C@H](NC(=O)[C@H](CC(=O)O)NC(=O)[C@H](Cc2c[nH]cn2)NC(=O)[C@@H](NC(=O)C(C)(Cc2ccccc2F)NC(=O)[C@@H](NC(=O)CNC(=O)[C@H](CCC(=O)O)NC(=O)C2(C)CCCN2C(=O)[C@@H](O)Cc2c[nH]cn2)[C@@H](C)O)[C@@H](C)O)C(=O)N[C@@H](Cc2ccc(-c3ccccc3C)nc2)C(N)=O)cc1 (stereo partly shown) [SEQ ID NO: 151] ({Lactoyl(3-(imidazol-4-yl))}-[ξαMeP]EGT[ξαMePhe(2-F)]THD[Bip(2'-Et-4'-OMe)][Ala(6-(2-MePh)pyridin-3-yl)]-NH2)
Exposure/dose during ipGTT in ob/ob mice [1]: 16 nM*h/nmol/kg | effect on postprandial plasma glucose (C57BL/6J-ob/ob mice): statistically significant decrease | Exposure in dogs (sc@67 μg/kg) [2, 5]: 1.566 µM·h | AUC [2, 6]: 1.52 ± 0.424 µM·h | MRT [2, 6]: 4.4 ± 0.1 h | clearance ([2]; male, beagle, plasma, 67 ug/kg, dog, intravenous 67 μg/kg, Tables 6B/6C, vehicle not given, read-out: CLp): 0.49 ± 0.16 mL/min/kg | Vd ([2]; male, beagle, plasma, 67 ug/kg, dog, intravenous 67 μg/kg, Tables 6B/6C, vehicle not given, read-out: Vss): 0.13 ± 0.05 L/kg | half-life [2, 6]: 4 ± 0.2 h | AUC [2, 7]: 1.57 ± 0.235 µM·h | MRT [2, 7]: 5.8 ± 1 h | Tmax [2, 7]: 1.8 ± 0.5 h | bioavailability [2, 7]: 110 ± 41% | Cmax ([2]; male, beagle, plasma, sc, 67 ug/kg, dog, subcutaneous 67 μg/kg, Tables 6B/6C (Table I footnote: 0.2 M Tris buffer pH 8.0), read-out: Cmax): 252 ± 15 nM | half-life [2, 7]: 4.4 ± 1.4 h

CCc1cc(O)ccc1-c1ccc(C[C@H](NC(=O)[C@H](CC(=O)O)NC(=O)[C@H](CO)NC(=O)[C@@H](NC(=O)C(C)(Cc2ccccc2F)NC(=O)[C@@H](NC(=O)CNC(=O)[C@H](CCC(=O)O)NC(=O)C2(C)CCCN2C(=O)[C@H](Cc2c[nH]cn2)NC(=O)OC)[C@@H](C)O)[C@@H](C)O)C(=O)N[C@@H](Cc2ccc(-c3ccccc3C)nc2)C(N)=O)cc1 (stereo partly shown) [SEQ ID NO: 158] (Moc-H[ξαMeP]EGT[ξαMePhe(2-F)]TSD[Phe(4-(2-Et-4-HO-Ph))][Ala(6-(2-MePh)pyridin-3-yl)]-NH2)
Exposure/dose during ipGTT in ob/ob mice [1]: 11 nM*h/nmol/kg | effect on postprandial plasma glucose (C57BL/6J-ob/ob mice): statistically significant decrease | Exposure in dogs (sc@67 μg/kg) [2, 5]: 1.467 µM·h
